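1) Cells in 96-well plates. 2) Compound, 48 h, 5 concentrations. 3) Linear interpolation between surrounding doses. 4) Unreached endpoint = highest concentration. GI50 marks 50% less growth. The concentration for full growth arrest is given as TGI.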
What was measured:
Assay in all cases: inhibition of tumour cell growth, NCI panel, 48 h
HOP-92 NSCLC = tested on: HOP-92 NSCLC
UO-31 renal = tested on: UO-31 renal
A549 NSCLC = tested on: A549 NSCLC
SF-539 CNS = tested on: SF-539 CNS
TK-10 renal = tested on: TK-10 renal
NCI-H460 lung = tested on: NCI-H460 lung
HCT-15 colon = tested on: HCT-15 colon
SN12C renal = tested on: SN12C renal
UACC-257 melanoma = tested on: UACC-257 melanoma
OVCAR-5 ovarian = tested on: OVCAR-5 ovarian

SMILES | GI50 (HOP-92 NSCLC) [nM] | TGI (HOP-92 NSCLC) [µM] | GI50 (UO-31 renal) [nM] | TGI (UO-31 renal) [µM] | GI50 (A549 NSCLC) [nM] | TGI (A549 NSCLC) [µM] | GI50 (SF-539 CNS) [nM] | TGI (SF-539 CNS) [µM] | GI50 (TK-10 renal) [nM] | TGI (TK-10 renal) [µM] | GI50 (NCI-H460 lung) [nM] | TGI (NCI-H460 lung) [µM] | GI50 (HCT-15 colon) [µM] | TGI (HCT-15 colon) [µM] | GI50 (SN12C renal) [nM] | TGI (SN12C renal) [µM] | GI50 (UACC-257 melanoma) [µM] | TGI (UACC-257 melanoma) [µM] | TGI (OVCAR-5 ovarian) [µM] | GI50 (OVCAR-5 ovarian) [nM]
CC(=O)[CH-]C(=O)c1ccccc1.CC(=O)[CH-]C(=O)c1ccccc1.[Nd+3].[OH-].[OH3+] | > 100000 | > 100 | > 100000 | > 100 | > 100000 | > 100 | > 100000 | > 100 | > 100000 | > 100 | > 100000 | > 100 | > 100 | > 100 | > 100000 | > 100 | > 100 | > 100 |  | 
COc1nc(OC)c2c(=O)oc(-c3ccccc3)cc2n1 |  | > 100 |  | > 100 |  | > 100 |  | > 100 |  | > 100 |  |  |  | > 100 |  | > 100 |  | > 100 | > 100 | 
C=C1C(=O)O[C@H]2[C@H]1CC/C(COC(=O)OCCCCCOC(=O)OC/C1=C/CC[C@@]3(C)O[C@H]3[C@H]3OC(=O)C(=C)[C@@H]3CC1)=C\CC[C@@]1(C)O[C@@H]21 | 1260 | 2.94 | 674 | 2.05 | 2630 | 7.42 | 610 | 2.04 | 222 | 0.59 | 1870 | 4.64 | 0.252 | 0.822 |  |  | 0.661 | 2.31 | 2.08 | 581
CCCCCCC1CCC2CCCC(C)N12 (centres undefined) |  | > 100 |  | > 100 |  | > 100 |  | > 100 |  | > 100 |  | 59.8 |  | 89.6 |  | > 100 |  | > 100 |  | 
CC1=CC[C@@H]2[C@@H](CC[C@@]2(C)O)C(C)(C)[C@H]1CC[C@@H]1[C@@]2(C)CCC(=O)C(C)(C)O[C@@H]2CC[C@]1(C)O |  |  |  | 49 |  | > 100 |  | 36.5 |  | > 100 |  | 35.8 |  | 34.3 |  | 42.3 |  | > 100 | > 100 | 
CC(C)C1CN1CC(O)Cn1ccnc1[N+](=O)[O-] (centres undefined) |  |  |  | > 100 |  | > 100 |  | > 100 |  | > 100 |  | > 100 |  | > 100 |  | > 100 |  | > 100 | > 100 | 
O=c1cc2n(c(=O)[nH]1)C1OC(C(O)C1O)[C@@H]2CCO (some centres undefined) |  | > 100 |  | > 100 |  | > 100 |  | > 100 |  | > 100 |  | > 100 |  |  |  | > 100 |  | > 100 | > 100 | 
CS(=O)(=O)C1S(=O)(=O)OCCOS1(=O)=O |  | > 100 |  | > 100 |  | > 100 |  | > 100 |  | > 100 |  | > 100 |  |  |  | > 100 |  | > 100 | > 100 | 
COc1ccc(-c2cc3c4c(nc5ccccc5c4c2)CC(c2cc(OC)c(OC)c(OC)c2)O3)cc1 (centres undefined) | 1620 | 4.71 |  |  |  |  | 1440 | 2.95 | 2370 | 5.28 | 1460 | 4.79 | 3.73 | > 100 | 2750 | > 100 | 3.93 | > 100 |  | 
